Results: ChEMBL document CHEMBL1201862, “PubChem BioAssay data set” (2004)
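How tested: cells in 96-well plates exposed to compound for 48 hours at five concentrations. The concentration for 50% growth inhibition is given as GI50.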 The source made the active and inactive calls. Rule as the data show it: active = GI50 up to about 1.1 µM and inactive = higher.

What was measured:
Assay in all cases: NCI anticancer screen, dose series, 48 h
[1] = test system: Malme-3M
[2] = test system: U-251
[3] = test system: UACC-257
[4] = test system: TK-10
[5] = test system: COLO 205
[6] = test system: MDA-MB-435
[7] = test system: SR
[8] = test system: SF-539
[9] = test system: A498
[10] = test system: OVCAR-5
[11] = test system: M14
[12] = test system: RPMI-8226
[13] = test system: OVCAR-3
[14] = test system: SK-MEL-5
[15] = test system: HL-60
[16] = test system: NCI-H522
[17] = test system: HOP-62
[18] = test system: SF-295
[19] = test system: SK-MEL-2
[20] = test system: HT-29

Measured: GI50

CCC(C)C(=O)OCC(=O)c1ccc(-c2ccccc2)cc1 (stereo not given)
inactive: [1] 29.1 µM | [2] 50.5 µM | [3] 27.2 µM | [4] 66.4 µM | [5] > 100 µM | [6] 99.1 µM | [7] 31.6 µM | [8] > 100 µM | [9] 32.7 µM | [10] > 100 µM | [11] 89.7 µM | [12] 24.5 µM | [13] 37.8 µM | [14] 24.7 µM | [15] > 100 µM | [16] 22.8 µM | [17] > 100 µM | [18] 59.8 µM | [19] 41.6 µM | [20] 34.6 µM
